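Briefly, cells in 96-well plates were exposed to five compound concentrations for 48 h, and endpoints were estimated by linear interpolation. At the TGI there is no net growth.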
Legend:
Experiment in all cases: NCI tumour cell line growth inhibition, 48 h
SK-MEL-2 melanoma = system: SK-MEL-2 melanoma
HL-60(TB) leukemia = system: HL-60(TB) leukemia
UACC-257 melanoma = system: UACC-257 melanoma
SF-295 CNS = system: SF-295 CNS
HT29 colon = system: HT29 colon
SK-OV-3 ovarian = system: SK-OV-3 ovarian
SR leukemia = system: SR leukemia
PC-3 prostate = system: PC-3 prostate
MALME-3M melanoma = system: MALME-3M melanoma
BT-549 breast = system: BT-549 breast
ACHN renal = system: ACHN renal
NCI-H460 lung = system: NCI-H460 lung
HCT-116 colon = system: HCT-116 colon
MDA-MB-435 = system: MDA-MB-435
DLD-1 colon = system: DLD-1 colon
IGROV1 ovarian = system: IGROV1 ovarian
DMS 273 small cell lung = system: DMS 273 small cell lung
NCI/ADR-RES ovarian = system: NCI/ADR-RES ovarian
SF-268 CNS = system: SF-268 CNS
OVCAR-3 ovarian = system: OVCAR-3 ovarian
RXF 393 renal = system: RXF 393 renal
KM20L2 colon = system: KM20L2 colon
CAKI-1 renal = system: CAKI-1 renal
786-0 renal = system: 786-0 renal
UO-31 renal = system: UO-31 renal
M19-MEL melanoma = system: M19-MEL melanoma
MCF7 breast = system: MCF7 breast
UACC-62 melanoma = system: UACC-62 melanoma
SK-MEL-5 melanoma = system: SK-MEL-5 melanoma
LOX IMVI melanoma = system: LOX IMVI melanoma
RPMI-8226 leukemia = system: RPMI-8226 leukemia
K-562 leukemia = system: K-562 leukemia
SW-620 colon = system: SW-620 colon
NCI-H226 lung = system: NCI-H226 lung
SF-539 CNS = system: SF-539 CNS
LXFL 529 NSCLC = system: LXFL 529 NSCLC
DU-145 prostate = system: DU-145 prostate
MDA-MB-231 breast = system: MDA-MB-231 breast
HS 578T breast = system: HS 578T breast
NCI-H522 lung = system: NCI-H522 lung
U251 CNS = system: U251 CNS
OVCAR-8 ovarian = system: OVCAR-8 ovarian
SN12C renal = system: SN12C renal
HOP-62 NSCLC = system: HOP-62 NSCLC
HOP-92 NSCLC = system: HOP-92 NSCLC
SNB-78 CNS = system: SNB-78 CNS
HOP-18 NSCLC = system: HOP-18 NSCLC
EKVX NSCLC = system: EKVX NSCLC
OVCAR-4 ovarian = system: OVCAR-4 ovarian
SNB-19 CNS = system: SNB-19 CNS
SNB-75 CNS = system: SNB-75 CNS
DMS 114 small cell lung = system: DMS 114 small cell lung
MDA-N = system: MDA-N
MOLT-4 leukemia = system: MOLT-4 leukemia
COLO 205 colon = system: COLO 205 colon
CCRF-CEM leukemia = system: CCRF-CEM leukemia
SK-MEL-28 melanoma = system: SK-MEL-28 melanoma
M14 melanoma = system: M14 melanoma
HCT-15 colon = system: HCT-15 colon
OVCAR-5 ovarian = system: OVCAR-5 ovarian
KM12 colon = system: KM12 colon
NCI-H23 lung = system: NCI-H23 lung
A549 NSCLC = system: A549 NSCLC
T-47D breast = system: T-47D breast
TK-10 renal = system: TK-10 renal
HCC-2998 colon = system: HCC-2998 colon
XF 498 CNS = system: XF 498 CNS
RXF-631 renal = system: RXF-631 renal
A498 renal = system: A498 renal

Nc1ccc(Cn2ccc3c4c(N)nc(N)nc4ccc32)cc1
TGI (SK-MEL-2 melanoma): 5.15 µM
TGI (HL-60(TB) leukemia): 1.37 µM
TGI (UACC-257 melanoma): 8.02 µM
TGI (SF-295 CNS): 2.15 µM
TGI (HT29 colon): 2.18 µM
TGI (SK-OV-3 ovarian): 25.4 µM
TGI (SR leukemia): 4.74 µM
TGI (PC-3 prostate): 16.8 µM
TGI (MALME-3M melanoma): 7.04 µM
TGI (BT-549 breast): 16.4 µM
TGI (ACHN renal): 6.58 µM
TGI (NCI-H460 lung): 5.58 µM
TGI (HCT-116 colon): 1.5 µM
TGI (MDA-MB-435): 6.15 µM
TGI (DLD-1 colon): 17 µM
TGI (IGROV1 ovarian): 18.7 µM
TGI (DMS 273 small cell lung): 11.9 µM
TGI (NCI/ADR-RES ovarian): > 100 µM
TGI (SF-268 CNS): 25.6 µM
TGI (OVCAR-3 ovarian): 2.51 µM
TGI (RXF 393 renal): 15.4 µM
TGI (KM20L2 colon): 10.8 µM
TGI (CAKI-1 renal): 18 µM
TGI (786-0 renal): 16.4 µM
TGI (UO-31 renal): 19 µM
TGI (M19-MEL melanoma): 5.59 µM
TGI (MCF7 breast): 14.3 µM
TGI (UACC-62 melanoma): 1.5 µM
TGI (SK-MEL-5 melanoma): 8.24 µM
TGI (LOX IMVI melanoma): 1.21 µM
TGI (RPMI-8226 leukemia): > 100 µM
TGI (K-562 leukemia): 2.44 µM
TGI (SW-620 colon): 2.27 µM
TGI (NCI-H226 lung): 27.7 µM
TGI (SF-539 CNS): 4.15 µM
TGI (LXFL 529 NSCLC): 15.7 µM
TGI (DU-145 prostate): 14.3 µM
TGI (MDA-MB-231 breast): 3.48 µM
TGI (HS 578T breast): 7.32 µM
TGI (NCI-H522 lung): 3.72 µM
TGI (U251 CNS): 5.02 µM
TGI (OVCAR-8 ovarian): 22 µM
TGI (SN12C renal): 8.67 µM
TGI (HOP-62 NSCLC): 5.09 µM
TGI (HOP-92 NSCLC): 8.7 µM
TGI (SNB-78 CNS): 32.5 µM
TGI (HOP-18 NSCLC): 21.9 µM
TGI (EKVX NSCLC): 23.1 µM
TGI (OVCAR-4 ovarian): 4.75 µM
TGI (SNB-19 CNS): 17.6 µM
TGI (SNB-75 CNS): 12.5 µM
TGI (DMS 114 small cell lung): 1.94 µM
TGI (MDA-N): 14.2 µM
TGI (MOLT-4 leukemia): > 51.7 µM
TGI (COLO 205 colon): 2.72 µM
TGI (CCRF-CEM leukemia): 2.71 µM
TGI (SK-MEL-28 melanoma): 5.32 µM
TGI (M14 melanoma): 6.45 µM
TGI (HCT-15 colon): 17.6 µM
TGI (OVCAR-5 ovarian): 19.4 µM
TGI (KM12 colon): 12.2 µM
TGI (NCI-H23 lung): 7.86 µM
TGI (A549 NSCLC): 15.2 µM
TGI (T-47D breast): 6.18 µM
TGI (TK-10 renal): 13.6 µM
TGI (HCC-2998 colon): 3 µM
TGI (XF 498 CNS): 2.9 µM

Cc1cc(Cl)ccc1N=C1NC(=O)C(CC(=O)Nc2cccc(C)c2C)S1 (stereo not drawn)
TGI (SK-MEL-2 melanoma): 46.9 µM
TGI (UACC-257 melanoma): > 100 µM
TGI (SF-295 CNS): 81.2 µM
TGI (HT29 colon): > 100 µM
TGI (SK-OV-3 ovarian): 55.9 µM
TGI (RXF-631 renal): 84.3 µM
TGI (MALME-3M melanoma): 65.1 µM
TGI (ACHN renal): 73.6 µM
TGI (NCI-H460 lung): > 100 µM
TGI (DLD-1 colon): > 100 µM
TGI (IGROV1 ovarian): > 100 µM
TGI (DMS 273 small cell lung): 81 µM
TGI (SF-268 CNS): > 100 µM
TGI (OVCAR-3 ovarian): > 100 µM
TGI (KM20L2 colon): 87.2 µM
TGI (CAKI-1 renal): 54.5 µM
TGI (786-0 renal): 47.9 µM
TGI (UO-31 renal): 51.5 µM
TGI (M19-MEL melanoma): > 100 µM
TGI (UACC-62 melanoma): 71.3 µM
TGI (SK-MEL-5 melanoma): 41.4 µM
TGI (LOX IMVI melanoma): 80.6 µM
TGI (RPMI-8226 leukemia): 64.2 µM
TGI (K-562 leukemia): > 100 µM
TGI (SW-620 colon): > 100 µM
TGI (A498 renal): 50.5 µM
TGI (SF-539 CNS): 43.4 µM
TGI (U251 CNS): 74.5 µM
TGI (OVCAR-8 ovarian): 75.9 µM
TGI (SN12C renal): 82.3 µM
TGI (HOP-62 NSCLC): 62.6 µM
TGI (HOP-92 NSCLC): 26.5 µM
TGI (SNB-78 CNS): 79.7 µM
TGI (EKVX NSCLC): > 100 µM
TGI (OVCAR-4 ovarian): 69.2 µM
TGI (SNB-19 CNS): 68.3 µM
TGI (SNB-75 CNS): 48.8 µM
TGI (DMS 114 small cell lung): 66.6 µM
TGI (MOLT-4 leukemia): > 100 µM
TGI (COLO 205 colon): 46.2 µM
TGI (CCRF-CEM leukemia): > 100 µM
TGI (SK-MEL-28 melanoma): > 100 µM
TGI (M14 melanoma): 50.9 µM
TGI (HCT-15 colon): > 100 µM
TGI (OVCAR-5 ovarian): > 100 µM
TGI (KM12 colon): > 100 µM
TGI (NCI-H23 lung): 52.1 µM
TGI (A549 NSCLC): 96.3 µM
TGI (TK-10 renal): > 100 µM
TGI (HCC-2998 colon): 65.1 µM
TGI (XF 498 CNS): 39 µM

— PubChem BioAssay (NCI)
